Experimental data published in patent publication US8765773B2, “Substituted hydroxamic acids and uses thereof” (Millennium Pharmaceuticals, Inc., priority 2010, dated 2014).

target: T1, purified human HDAC6 (Homo sapiens, UniProt Q9UBN7); test: HDAC6 Enzyme Assay; assay type: biochemical; details: compound concentration 0.37 μM, read-out: Percent Inhibition
T1 construct: purchased BPS Bioscience 5006
T1 sequence (Q9UBN7 1-1215): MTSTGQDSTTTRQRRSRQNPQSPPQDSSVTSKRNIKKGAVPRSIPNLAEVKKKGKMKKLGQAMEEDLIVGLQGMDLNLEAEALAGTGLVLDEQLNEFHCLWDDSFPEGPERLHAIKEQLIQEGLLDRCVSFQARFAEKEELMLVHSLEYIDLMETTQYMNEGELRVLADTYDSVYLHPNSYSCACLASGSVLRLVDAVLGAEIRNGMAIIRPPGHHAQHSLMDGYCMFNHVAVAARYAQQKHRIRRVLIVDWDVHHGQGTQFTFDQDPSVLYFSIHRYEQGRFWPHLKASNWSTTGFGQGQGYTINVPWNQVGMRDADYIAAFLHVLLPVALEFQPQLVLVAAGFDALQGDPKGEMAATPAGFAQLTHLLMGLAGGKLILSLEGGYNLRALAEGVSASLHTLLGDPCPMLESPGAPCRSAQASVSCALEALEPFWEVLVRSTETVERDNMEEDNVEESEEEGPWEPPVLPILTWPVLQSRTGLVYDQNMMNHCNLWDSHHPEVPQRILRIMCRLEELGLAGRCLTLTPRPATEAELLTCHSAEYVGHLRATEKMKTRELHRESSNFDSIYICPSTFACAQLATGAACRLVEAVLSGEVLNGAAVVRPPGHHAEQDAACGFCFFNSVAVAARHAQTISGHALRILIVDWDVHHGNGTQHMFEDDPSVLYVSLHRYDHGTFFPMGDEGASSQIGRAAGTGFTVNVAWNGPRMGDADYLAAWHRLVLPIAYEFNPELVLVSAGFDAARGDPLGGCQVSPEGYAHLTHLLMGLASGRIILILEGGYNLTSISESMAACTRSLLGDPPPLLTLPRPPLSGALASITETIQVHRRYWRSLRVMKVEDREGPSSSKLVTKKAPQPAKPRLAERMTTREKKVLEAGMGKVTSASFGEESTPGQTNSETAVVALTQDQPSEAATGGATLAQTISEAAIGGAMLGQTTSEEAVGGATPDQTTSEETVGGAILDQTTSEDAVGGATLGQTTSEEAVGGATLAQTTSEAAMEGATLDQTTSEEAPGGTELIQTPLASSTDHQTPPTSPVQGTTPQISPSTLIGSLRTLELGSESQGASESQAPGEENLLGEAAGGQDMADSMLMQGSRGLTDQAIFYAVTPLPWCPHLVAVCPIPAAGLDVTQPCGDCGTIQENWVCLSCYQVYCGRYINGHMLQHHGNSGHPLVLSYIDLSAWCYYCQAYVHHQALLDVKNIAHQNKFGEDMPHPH
Protocol: To measure the inhibition of HDAC6 activity, purified human HDAC6 (BPS Bioscience; Cat. No. 5006) is incubated with substrate Ac-Arg-Gly-Lys(Ac)-AMC peptide (Bachem Biosciences; Cat. No. I-1925) for 1 hour at 30° C. in the presence of test compounds or vehicle DMSO control. The reaction is stopped with the HDAC inhibitor trichostatin A (Sigma; Cat. No. T8552) and the amount of Arg-Gly-Lys-AMC generated is quantitated by digestion with trypsin (Sigma; Cat. No. T1426) and subsequent measurement of the amount of AMC released using a fluorescent plate reader (Pherastar; BMG Technologies) set at Ex 340 nm and Em 460 nm. Concentration response curves are generated by calculating the fluorescence increase in test compound-treated samples relative to DMSO-treated controls, and percentage inhibition values at a single concentration or enzyme inhibition (IC50) values are determined from those curves. One skilled in the art will appreciate that the values generated either as percentage inhibition at a single concentration or IC50 values are subject to experimental variation.

inhibition at 0.37 µM | Structure (SMILES)
93.5% | O=C(NO)c1ccc2ncn(CCc3cccc(-c4ccccc4Cl)c3)c(=O)c2c1 [Compound I-314, 3-[2-(2′-chlorobiphenyl-3-yl)ethyl]-N-hydroxy-4-oxo-3,4-dihydroquinazoline-6-carboxamide]
23.2% | CN(C)Cc1cn(Cc2ccccc2)c(=O)c2cc(C(=O)NO)ccc12 [Compound I-419, 2-benzyl-4-[(dimethylamino)methyl]-N-hydroxy-1-oxo-1,2-dihydroisoquinoline-7-carboxamide]
90.6% | O=C(NO)c1ccc2ncn(CCc3cccc(-c4ccc(S(=O)(=O)N5CCCCC5)cc4)c3)c(=O)c2c1 [Compound I-299, N-hydroxy-4-oxo-3-{2-[4′-(piperidin-1-ylsulfonyl)biphenyl-3-yl]ethyl}-3,4-dihydroquinazoline-6-carboxamide]
61.8% | CCn1nccc1-c1nc2cc(C(=O)NO)ccc2c(=O)[nH]1 [Compound I-399, 2-(1-ethyl-1H-pyrazol-5-yl)-N-hydroxy-4-oxo-3,4-dihydroquinazoline-7-carboxamide]
88.2% | O=C(NO)c1ccc2ncn(CCc3cccc(N4CCOCC4)c3)c(=O)c2c1 [Compound I-125, N-hydroxy-3-[2-(3-morpholin-4-ylphenyl)ethyl]-4-oxo-3,4-dihydroquinazoline-6-carboxamide]
97.5% | O=C(NO)c1ccc2ccn(-c3cccc(Cl)c3)c(=O)c2c1 [Compound I-179, 2-(3-chlorophenyl)-N-hydroxy-1-oxo-1,2-dihydroisoquinoline-7-carboxamide]
69.5% | CC(C)c1cccc(-c2cccc(CCn3cnc4ccc(C(=O)NO)cc4c3=O)c2)c1 [Compound I-342, N-hydroxy-3-[2-(3′-isopropylbiphenyl-3-yl)ethyl]-4-oxo-3,4-dihydroquinazoline-6-carboxamide]
85.3% | O=C(NO)c1ccc2c(=O)[nH]c(C3CCCC3)nc2c1 [Compound I-420, 2-cyclopentyl-N-hydroxy-4-oxo-3,4-dihydroquinazoline-7-carboxamide]
88.1% | Cc1ccc(-c2cccc(CCn3cnc4ccc(C(=O)NO)cc4c3=O)c2)cc1 [Compound I-301, N-hydroxy-3-[2-(4′-methylbiphenyl-3-yl)ethyl]-4-oxo-3,4-dihydroquinazoline-6-carboxamide]
93.2% | CC(C)(C)OC(=O)N1CCC(c2cccc(CCn3ccc4ccc(C(=O)NO)cc4c3=O)c2)CC1 [Compound I-317, tert-butyl 4-(3-{2-[7-[(hydroxyamino)carbonyl]-1-oxoisoquinolin-2(1H)-yl]ethyl}phenyl)piperidine-1-carboxylate]

same assay, conditions: compound concentration 0.412 μM, read-out: Percent Inhibition

inhibition at 0.412 µM | Structure (SMILES)
79.6% | O=C(NO)c1ccc2ncn(C(c3ccccc3)c3ccccc3)c(=O)c2c1 [Compound I-4, 3-(diphenylmethyl)-N-hydroxy-4-oxo-3,4-dihydroquinazoline-6-carboxamide]
30.6% | CC(C)(C)c1cccc(OCc2nc3cc(C(=O)NO)ccc3c(=O)[nH]2)c1 [Compound I-17, 2-[(3-tert-butylphenoxy)methyl]-N-hydroxy-4-oxo-3,4-dihydroquinazoline-7-carboxamide]
95.5% | O=C(NO)c1ccc2ncn(Cc3cccc(C(F)(F)F)c3)c(=O)c2c1 [Compound I-185, N-hydroxy-4-oxo-3-[3-(trifluoromethyl)benzyl]-3,4-dihydroquinazoline-6-carboxamide]
79.1% | O=C(NO)c1ccc2ncn(Cc3ccccn3)c(=O)c2c1 [Compound I-193, N-hydroxy-4-oxo-3-(pyridin-2-ylmethyl)-3,4-dihydroquinazoline-6-carboxamide]
81.2% | O=C(NO)c1ccc2c(=O)[nH]c(COc3ccccc3Cl)nc2c1 [Compound I-144, 2-[(2-chlorophenoxy)methyl]-N-hydroxy-4-oxo-3,4-dihydroquinazoline-7-carboxamide]
97% | O=C(NO)c1ccc2ccn(CCCc3ccccc3)c(=O)c2c1 [Compound I-11, N-hydroxy-1-oxo-2-(3-phenylpropyl)-1,2-dihydroisoquinoline-7-carboxamide]
68.9% | Cc1nc2cc(C(=O)NO)ccc2c(=O)[nH]1 [Compound I-18, N-hydroxy-2-methyl-4-oxo-3,4-dihydroquinazoline-7-carboxamide]
78.5% | Cn1c(NCc2ccc(Cl)cc2)nc2cc(C(=O)NO)ccc2c1=O [Compound I-139, 2-[(4-chlorobenzyl)amino]-N-hydroxy-3-methyl-4-oxo-3,4-dihydroquinazoline-7-carboxamide]
89.9% | CCN(CC)Cc1cccc(Cn2ccc3ccc(C(=O)NO)cc3c2=O)c1 [Compound I-208, 2-{3-[(diethylamino)methyl]benzyl}-N-hydroxy-1-oxo-1,2-dihydroisoquinoline-7-carboxamide]
93% | CCC(CC)Cn1ccc2ccc(C(=O)NO)cc2c1=O [Compound I-130, 2-(2-ethylbutyl)-N-hydroxy-1-oxo-1,2-dihydroisoquinoline-7-carboxamide]
94.5% | O=C(NO)c1ccc2ccn(Cc3ccccc3C(F)(F)F)c(=O)c2c1 [Compound I-172, N-hydroxy-1-oxo-2-[2-(trifluoromethyl)benzyl]-1,2-dihydroisoquinoline-7-carboxamide]
87.7% | O=C(NO)c1ccc2c(=O)n(Cc3ccc(C(F)(F)F)cc3)c(-c3ccccc3)nc2c1 [Compound I-73, N-hydroxy-4-oxo-2-phenyl-3-[4-(trifluoromethyl)benzyl]-3,4-dihydroquinazoline-7-carboxamide]
91% | O=C(NO)c1ccc2ccn(CCNCc3cccc(C(F)(F)F)c3)c(=O)c2c1 [Compound I-77, N-hydroxy-1-oxo-2-(2-{[3-(trifluoromethyl)benzyl]amino}ethyl)-1,2-dihydroisoquinoline-7-carboxamide]
85% | CC(C)n1c(-c2ccccc2)nc2cc(C(=O)NO)ccc2c1=O [Compound I-9, N-hydroxy-3-isopropyl-4-oxo-2-phenyl-3,4-dihydroquinazoline-7-carboxamide]
78.9% | Cc1ccccc1OCc1nc2cc(C(=O)NO)ccc2c(=O)[nH]1 [Compound I-29, N-hydroxy-2-[(2-methylphenoxy)methyl]-4-oxo-3,4-dihydroquinazoline-7-carboxamide]
95.6% | O=C(NO)c1ccc2ccn(CCNc3ccc(Cl)cc3)c(=O)c2c1 [Compound I-113, 2-{2-[(4-chlorophenyl)amino]ethyl}-N-hydroxy-1-oxo-1,2-dihydroisoquinoline-7-carboxamide]
87.4% | O=C(NO)c1ccc2ccn(CCCOc3ccccc3-c3csnn3)c(=O)c2c1 [Compound I-160, N-hydroxy-1-oxo-2-{3-[2-(1,2,3-thiadiazol-4-yl)phenoxy]propyl}-1,2-dihydroisoquinoline-7-carboxamide]
94.6% | O=C(NO)c1ccc2ccn(Cc3ccccc3F)c(=O)c2c1 [Compound I-122, 2-(2-fluorobenzyl)-N-hydroxy-1-oxo-1,2-dihydroisoquinoline-7-carboxamide]
68.8% | Cn1cnc2cc(C(=O)NO)ccc2c1=O [Compound I-242, N-hydroxy-3-methyl-4-oxo-3,4-dihydroquinazoline-7-carboxamide]
87.5% | O=C(NO)c1ccc2ccn(CCCOc3ccc(Oc4ccccc4)cc3)c(=O)c2c1 [Compound I-235, N-hydroxy-1-oxo-2-[3-(4-phenoxyphenoxy)propyl]-1,2-dihydroisoquinoline-7-carboxamide]
